Target: T1, Sortase A (SrtA) (Staphylococcus aureus, UniProt Q2FV99)
T1 sequence (Q2FV99 60-206): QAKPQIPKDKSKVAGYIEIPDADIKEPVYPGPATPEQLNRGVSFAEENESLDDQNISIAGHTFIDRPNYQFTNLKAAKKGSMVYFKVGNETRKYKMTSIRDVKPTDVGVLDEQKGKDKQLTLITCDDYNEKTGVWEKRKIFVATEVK
Test: FRET cleavage assay of Abz-LPATG-Dap
Type: biochemical

IC50: 7.24 µM
SMILES: CC(=O)/C=C/c1ccc(O)c(O)c1 [OSC, osmundacetone]

— PMC12070378 (Microbial Biotechnology, 2025)
